The structures appear in SMILES notation.

The target of the assay is LRRK2 (Homo sapiens, UniProt Q5S007). As to the kind of experiment: LRRK2 protein kinase assay ([γ-33P] ATP, peptide substrate), KI values of Table 1. To be noted: LRRK2 affinity values. It is filed as biochemical. An excerpt: All LRRK2 protein kinases were of human origin and were sourced from Invitrogen Corporation (Carlsbad, Calif. 92008 USA) unless otherwise indicated. The active mutant used was recombinant human, catalytic domain (amino acids 970-2527) containing a G2019S mutation, GST-tagged, expressed in insect cells (Invitrogen Cat#PV4881). The wild type used was recombinant human, catalytic domain (amino acids 970-2527) GST-tagged, expressed in insect cells (Invitrogen Cat#PV4873). The kinase dead mutant used was recombinant human, catalytic domain (amino acids 970-2527) containing a D1994A mutation, GST-tagged, expressed in insect cells (Invitrogen Cat#PM4041AE). No special measures were taken to activate any of the kinases.
Chain of LRRK2 (Q5S007 whole entry G2019S, form open, the tested form may be a part): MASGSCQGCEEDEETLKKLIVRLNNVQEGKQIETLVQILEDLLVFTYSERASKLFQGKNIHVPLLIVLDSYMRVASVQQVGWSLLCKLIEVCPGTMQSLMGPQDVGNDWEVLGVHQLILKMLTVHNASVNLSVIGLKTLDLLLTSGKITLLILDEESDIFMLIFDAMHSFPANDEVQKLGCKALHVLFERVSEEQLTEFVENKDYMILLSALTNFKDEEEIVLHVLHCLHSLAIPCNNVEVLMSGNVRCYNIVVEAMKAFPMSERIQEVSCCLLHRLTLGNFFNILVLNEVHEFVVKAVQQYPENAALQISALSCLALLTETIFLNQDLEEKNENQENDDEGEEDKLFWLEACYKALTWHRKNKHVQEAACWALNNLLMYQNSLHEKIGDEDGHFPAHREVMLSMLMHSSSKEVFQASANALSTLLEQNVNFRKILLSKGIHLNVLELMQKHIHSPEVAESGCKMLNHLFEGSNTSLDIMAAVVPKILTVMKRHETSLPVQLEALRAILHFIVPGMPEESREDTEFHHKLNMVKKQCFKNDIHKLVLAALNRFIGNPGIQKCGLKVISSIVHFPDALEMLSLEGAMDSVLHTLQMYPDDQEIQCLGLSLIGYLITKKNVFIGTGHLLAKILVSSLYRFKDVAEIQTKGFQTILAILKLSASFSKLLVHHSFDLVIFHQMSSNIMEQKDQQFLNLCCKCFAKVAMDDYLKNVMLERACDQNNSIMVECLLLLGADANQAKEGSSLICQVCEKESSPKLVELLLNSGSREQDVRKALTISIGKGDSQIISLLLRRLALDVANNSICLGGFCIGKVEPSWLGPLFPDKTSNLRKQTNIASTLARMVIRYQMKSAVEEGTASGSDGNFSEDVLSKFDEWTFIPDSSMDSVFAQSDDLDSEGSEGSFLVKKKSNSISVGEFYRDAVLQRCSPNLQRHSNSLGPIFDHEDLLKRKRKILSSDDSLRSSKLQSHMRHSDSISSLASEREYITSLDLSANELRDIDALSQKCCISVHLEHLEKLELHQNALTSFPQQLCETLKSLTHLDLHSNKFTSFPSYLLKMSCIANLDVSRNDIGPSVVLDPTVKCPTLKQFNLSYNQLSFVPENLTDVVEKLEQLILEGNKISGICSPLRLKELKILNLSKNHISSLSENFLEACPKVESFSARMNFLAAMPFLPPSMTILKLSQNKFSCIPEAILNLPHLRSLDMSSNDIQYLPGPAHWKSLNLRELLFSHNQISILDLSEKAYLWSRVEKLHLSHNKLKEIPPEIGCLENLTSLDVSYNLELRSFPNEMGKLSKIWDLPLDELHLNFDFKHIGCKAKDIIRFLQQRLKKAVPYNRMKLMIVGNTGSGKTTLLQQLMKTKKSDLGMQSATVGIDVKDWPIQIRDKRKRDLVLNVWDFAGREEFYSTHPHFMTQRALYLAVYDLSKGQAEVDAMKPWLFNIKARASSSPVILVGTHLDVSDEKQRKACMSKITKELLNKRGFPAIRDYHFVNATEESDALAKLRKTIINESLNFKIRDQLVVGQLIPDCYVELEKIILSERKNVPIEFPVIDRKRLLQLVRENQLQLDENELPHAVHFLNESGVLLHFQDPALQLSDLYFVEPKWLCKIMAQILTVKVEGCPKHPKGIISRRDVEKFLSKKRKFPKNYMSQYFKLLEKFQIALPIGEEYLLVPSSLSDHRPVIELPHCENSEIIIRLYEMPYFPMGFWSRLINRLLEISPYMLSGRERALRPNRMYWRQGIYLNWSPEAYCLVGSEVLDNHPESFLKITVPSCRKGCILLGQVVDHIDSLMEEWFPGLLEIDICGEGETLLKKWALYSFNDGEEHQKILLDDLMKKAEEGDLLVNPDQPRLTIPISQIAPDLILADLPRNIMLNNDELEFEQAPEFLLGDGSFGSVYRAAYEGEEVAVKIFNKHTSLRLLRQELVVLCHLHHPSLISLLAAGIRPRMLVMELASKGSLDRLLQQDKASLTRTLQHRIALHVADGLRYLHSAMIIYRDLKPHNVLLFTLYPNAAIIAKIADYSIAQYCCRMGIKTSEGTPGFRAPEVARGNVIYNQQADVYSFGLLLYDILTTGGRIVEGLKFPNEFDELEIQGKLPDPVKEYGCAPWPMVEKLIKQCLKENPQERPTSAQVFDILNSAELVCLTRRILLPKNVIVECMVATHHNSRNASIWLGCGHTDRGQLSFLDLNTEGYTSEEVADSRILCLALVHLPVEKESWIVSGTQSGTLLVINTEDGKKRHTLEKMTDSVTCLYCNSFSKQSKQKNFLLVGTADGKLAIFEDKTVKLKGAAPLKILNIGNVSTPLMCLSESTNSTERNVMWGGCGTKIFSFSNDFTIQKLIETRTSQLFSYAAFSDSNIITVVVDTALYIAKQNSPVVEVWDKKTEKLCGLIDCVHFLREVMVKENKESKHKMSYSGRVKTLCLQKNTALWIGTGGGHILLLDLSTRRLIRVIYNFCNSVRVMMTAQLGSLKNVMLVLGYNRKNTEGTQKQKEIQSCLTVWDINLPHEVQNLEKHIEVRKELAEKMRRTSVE
All assays were carried out at room temperature (˜21° C.) and were linear with respect to time and enzyme concentration under the conditions used. Assays were performed for 180 min in a 96 well format. LRRK2 was present at a concentration of approximately 5 nM. The enzyme was diluted and assayed in 50 mM Tris-HCl pH7.5, 0.1 mM EGTA, 1 mM DTT and 10 mM MgCl2. The concentration of magnesium chloride in the assay was 10 mM. The [γ-33P] ATP (0.4 μCi/well) was used at 134 uM for G2019S mutant and at 57 μM for the wild type kinase in order to be at Km. The peptide substrate in the assay was […] at 100 μM.
The assays were initiated with Mg/ATP and stopped by the addition of 25 μl/well 50% orthophosphoric acid. Reactions were harvested onto Whatman P81 Unifilter Plates (Fisher Scientific. Loughborough, LE115RG, UK. Cat# FDU-105-020U) using a Tomtec harvester. (Tomtec Hamden, Conn. 06514. USA) Plates were counted using a Perkin Elmer Top Count NX7. (Perkin Elmer, Shelton Conn. 06484-4794 USA)
IC50 values of inhibitors were determined after carrying out assays at 10 different concentrations of each compound in duplicate.
As to `FC1(F)CCC(Nc2nccc3[nH]nc(-c4ccncn4)c23)CC1` [Compound 38, N-(4,4-difluorocyclohexyl)-3-(pyrimidin-4-yl)-1H-pyrazolo[4,3-c]pyridin-4-amine], the Ki turned out to be 16.4 nM. Take `CC(C)Nc1nccc2[nH]nc(-c3cc(C4CCOCC4)ccn3)c12` [Compound 39, N-isopropyl-3-(4-(tetrahydro-2H-pyran-4-yl)pyridin-2-yl)-1H-pyrazolo[4,3-c]pyridin-4-amine]: the Ki was found to be 3.9 nM. Against the preceding compound, the Ki is about 4.2-fold lower.

`CC(C)Nc1nccc2[nH]nc(-c3cc(C4CCN(C)CC4)ccn3)c12` [Compound 40, N-isopropyl-3-(4-(1-methylpiperidin-4-yl)pyridin-2-yl)-1H-pyrazolo[4,3-c]pyridin-4-amine] gave a Ki of 8.4 nM. Turning to `CC(C)Nc1nccc2[nH]nc(-c3nnc(C4CC4)n3C)c12` [Compound 41, 3-(5-cyclopropyl-4-methyl-4H-1,2,4-triazol-3-yl)-N-isopropyl-1H-pyrazolo[4,3-c]pyridin-4-amine], affinity was put at a Ki of 151 nM. This Ki is about 18-fold higher than that of the compound before.

`CC(C)Nc1nccc2[nH]nc(-c3nc(C4CC4)n(C)n3)c12` [Compound 42, 3-(5-cyclopropyl-1-methyl-1H-1,2,4-triazol-3-yl)-N-isopropyl-1H-pyrazolo[4,3-c]pyridin-4-amine]: the affinity corresponds to a Ki of 213 nM. For `FC(F)(F)CNc1nccc2[nH]nc(-c3ccccn3)c12` [Compound 43, 3-(pyridin-2-yl)-N-(2,2,2-trifluoroethyl)-1H-pyrazolo[4,3-c]pyridin-4-amine], the Ki turned out to be 8.8 nM. Take `Cc1c(-c2ccnc(-c3n[nH]c4ccnc(NC(C)C)c34)c2)cnn1C` [Compound 44, 3-(4-(1,5-dimethyl-1H-pyrazol-4-yl)pyridin-2-yl)-N-isopropyl-1H-pyrazolo[4,3-c]pyridin-4-amine]: the Ki was 1.1 nM. In turn, `Cc1nn(C)cc1-c1ccnc(-c2n[nH]c3ccnc(NC(C)C)c23)c1` [Compound 45, 3-(4-(1,3-dimethyl-1H-pyrazol-4-yl)pyridin-2-yl)-N-isopropyl-1H-pyrazolo[4,3-c]pyridin-4-amine] displayed a Ki of 1.3 nM.

`CC(C)Nc1nccc2[nH]nc(-c3cc(-c4ccn(C)n4)ccn3)c12` [Compound 46, N-isopropyl-3-(4-(1-methyl-1H-pyrazol-3-yl)pyridin-2-yl)-1H-pyrazolo[4,3-c]pyridin-4-amine] returned a Ki of 1 nM.

With `CC(C)Nc1nccc2[nH]nc(-c3cc(C4CCOCC4)ncn3)c12` [Compound 47, N-isopropyl-3-(6-(tetrahydro-2H-pyran-4-yl)pyrimidin-4-yl)-1H-pyrazolo[4,3-c]pyridin-4-amine], the affinity, expressed as Ki, was 3.8 nM.

As for `CC(C)Nc1nccc2[nH]nc(-c3cc(C4CCOC4)ncn3)c12` (centres unmarked) [Compound 48, N-isopropyl-3-(6-(tetrahydrofuran-3-yl)pyrimidin-4-yl)-1H-pyrazolo[4,3-c]pyridin-4-amine], the Ki was determined as 12 nM. Compared with the last compound, the Ki is about 3.2-fold higher. In the case of `CC(C)Nc1nccc2[nH]nc(-c3cc(C4CCOC4)ccn3)c12` (centres unmarked) [Compound 49, N-isopropyl-3-(4-(tetrahydrofuran-3-yl)pyridin-2-yl)-1H-pyrazolo[4,3-c]pyridin-4-amine], the Ki is 4.6 nM. Turning to `CCOc1ccnc(-c2n[nH]c3ccnc(NC4CCOCC4)c23)c1` [Compound 50, 3-(4-ethoxypyridin-2-yl)-N-(tetrahydro-2H-pyran-4-yl)-1H-pyrazolo[4,3-c]pyridin-4-amine], the Ki was determined as 2.2 nM. The figure for `Cc1cc2[nH]nc(-c3cc(C(F)(F)F)ccn3)c2c(NC2CCOCC2)n1` [Compound 51, 6-methyl-N-(tetrahydro-2H-pyran-4-yl)-3-(4-(trifluoromethyl)pyridin-2-yl)-1H-pyrazolo[4,3-c]pyridin-4-amine] is 39.9 nM; for `CN(C)C(=O)c1ccnc(-c2n[nH]c3ccnc(NC4CCOCC4)c23)c1` [Compound 52, N,N-dimethyl-2-(4-((tetrahydro-2H-pyran-4-yl)amino)-1H-pyrazolo[4,3-c]pyridin-3-yl)isonicotinamide] it is 37.2 nM. As for `CC(C)Nc1nccc2[nH]nc(-c3cc(C4CCCO4)ccn3)c12` (centres unmarked) [Compound 53, N-isopropyl-3-(4-(tetrahydrofuran-2-yl)pyridin-2-yl)-1H-pyrazolo[4,3-c]pyridin-4-amine], the Ki is 4.4 nM.

As for `CC(C)Nc1nccc2[nH]nc(-c3cc(C4CCCO4)ncn3)c12` (centres unmarked) [Compound 54, N-isopropyl-3-(6-(tetrahydrofuran-2-yl)pyrimidin-4-yl)-1H-pyrazolo[4,3-c]pyridin-4-amine], the Ki was determined as 28.7 nM.

Take `CC(C)Nc1nccc2[nH]nc(-c3cc(C(=O)N(C)C)ccn3)c12` [Compound 55, 2-(4-(isopropylamino)-1H-pyrazolo[4,3-c]pyridin-3-yl)-N,N-dimethylisonicotinamide]: the affinity corresponds to a Ki of 46.9 nM. This Ki is about 1.6-fold higher than that of the compound before. The figure for `CC(C)Nc1nccc2[nH]nc(-c3cc(C(=O)N4CCOCC4)ccn3)c12` [Compound 56, (2-(4-(isopropylamino)-1H-pyrazolo[4,3-c]pyridin-3-yl)pyridin-4-yl)(morpholino)methanone] is 80.3 nM; for `Cc1cc2[nH]nc(-c3cc(C(F)(F)F)ncn3)c2c(NC2CCOCC2)n1` [Compound 57, 6-methyl-N-(tetrahydro-2H-pyran-4-yl)-3-(6-(trifluoromethyl)pyrimidin-4-yl)-1H-pyrazolo[4,3-c]pyridin-4-amine] it is 66.3 nM; for `CCOc1cc(-c2n[nH]c3cc(C)nc(NC4CCOCC4)c23)ncn1` [Compound 58, 3-(6-ethoxypyrimidin-4-yl)-6-methyl-N-(tetrahydro-2H-pyran-4-yl)-1H-pyrazolo[4,3-c]pyridin-4-amine] it is 39.1 nM. Regarding `CC(C)Nc1nccc2[nH]nc(-c3cc(N4C[C@@H](F)[C@H](F)C4)ccn3)c12` [Compound 59, 3-(4-((3R,4R)-3,4-difluoropyrrolidin-1-yl)pyridin-2-yl)-N-isopropyl-1H-pyrazolo[4,3-c]pyridin-4-amine], the affinity corresponds to a Ki of 3.9 nM. As to `Cc1cc2[nH]nc(-c3cc(C(=O)N(C)C)ccn3)c2c(NC2CCOCC2)n1` [Compound 60, N,N-dimethyl-2-(6-methyl-4-((tetrahydro-2H-pyran-4-yl)amino)-1H-pyrazolo[4,3-c]pyridin-3-yl)isonicotinamide], the affinity, expressed as Ki, was 644 nM. The figure for `FC1(F)CN(c2ccnc(-c3n[nH]c4ccnc(NC5CCOCC5)c34)c2)CC(F)(F)O1` [Compound 61, 3-(4-(2,2,6,6-tetrafluoro-morpholino)pyridin-2-yl)-N-(tetrahydro-2H-pyran-4-yl)-1H-pyrazolo[4,3-c]pyridin-4-amine] is 1.4 nM; for `CC(C)Nc1nccc2[nH]nc(-c3cc(C(=O)N(C)C)ncn3)c12` [Compound 62, 6-(4-(isopropylamino)-1H-pyrazolo[4,3-c]pyridin-3-yl)-N,N-dimethylpyrimidine-4-carboxamide] it is 193 nM; for `O=C(c1ccnc(-c2n[nH]c3ccnc(NC4CCOCC4)c23)c1)N1CCC1` [Compound 63, azetidin-1-yl(2-(4-((tetrahydro-2H-pyran-4-yl)amino)-1H-pyrazolo[4,3-c]pyridin-3-yl)pyridin-4-yl)methanone] it is 14.7 nM. Take `Cc1cc(C(=O)N(C)C)cc(-c2n[nH]c3ccnc(NC4CCOCC4)c23)n1` [Compound 64, N,N,2-trimethyl-6-(4-((tetrahydro-2H-pyran-4-yl)amino)-1H-pyrazolo[4,3-c]pyridin-3-yl)isonicotinamide]: the Ki was 16.6 nM. Compound `FC(F)(F)c1cc(-c2n[nH]c3ccnc(NCC4CC4)c23)ncn1` [Compound 65, N-(cyclopropylmethyl)-3-(6-(trifluoromethyl)pyrimidin-4-yl)-1H-pyrazolo[4,3-c]pyridin-4-amine] displayed a Ki of 20.2 nM.

Take `FC1(F)CCC(Nc2nccc3[nH]nc(-c4cc(C(F)(F)F)ncn4)c23)CC1` [Compound 66, N-(4,4-difluorocyclohexyl)-3-(6-(trifluoro-methyl)pyrimidin-4-yl)-1H-pyrazolo[4,3-c]pyridin-4-amine]: the Ki turned out to be 22.9 nM. Compound `Cc1nc(-c2n[nH]c3ccnc(NC4CCC(F)(F)CC4)c23)cc(C(F)(F)F)n1` [Compound 67, N-(4,4-difluorocyclohexyl)-3-(2-methyl-6-(trifluoromethyl)pyrimidin-4-yl)-1H-pyrazolo[4,3-c]pyridin-4-amine] displayed a Ki of 20.3 nM.

For the compound `CC1CC(Nc2nccc3[nH]nc(-c4cc(C(F)(F)F)ncn4)c23)CC(C)O1` (centres unmarked) [Compound 68, N-(2,6-dimethyltetrahydro-2H-pyran-4-yl)-3-(6-(trifluoromethyl)pyrimidin-4-yl)-1H-pyrazolo[4,3-c]pyridin-4-amine], the affinity, expressed as Ki, was 23.3 nM.

Consider `CS(=O)(=O)c1ccnc(-c2n[nH]c3ccnc(NC4CCOCC4)c23)c1` [Compound 69, 3-(4-(methylsulfonyl)pyridin-2-yl)-N-(tetrahydro-2H-pyran-4-yl)-1H-pyrazolo[4,3-c]pyridin-4-amine], for which the Ki came to 6.8 nM.

(Values after US20140288043A1, “PYRAZOLOPYRIDINE COMPOUNDS” (Genentech, Inc., priority 2013, published 2014).)
